According to patent US20240317721A1, “PYRAZOLYL DERIVATIVES AS INHIBITORS OF THE KRAS MUTANT PROTEIN” (NOVARTIS AG, priority 2021, published 2024):

Target: KRasG12C (M1-K169, biotinylated on the N-terminus) (Homo sapiens (Human), UniProt P01116, G12C)
Test: Covalent competition assay: scintillation proximity assay (SPA) quantifying covalent modification of KRASG12C
Format: binding
Conditions: competition with radiolabeled covalent probe (Compound B/Compound A), 2 hours incubation, 10 nM KRasG12C
Outline: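 Test compounds compete with a radiolabeled covalent probe for modification of N-terminally biotinylated KRasG12C(M1-K169):GDP, final 10 nM protein, 25 nM radio-ligand, 475 nM unlabelled ligand, 2 h with agitation in 20 mM Tris-HCl pH 7.5, 150 mM NaCl, 0.1 mM MgCl2, 0.01% Tween-20.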

Q: For `C=CC(=O)N1CC2(CC(n3nc(N4CC[C@@H](CN5CCN(C6COC6)C[C@@H]5CO)CC4(C)C)c(-c4c(Cl)c(Cl)cc5[nH]ncc45)c3C)C2)C1` (single isomer, unassigned) [Example 290b], which IC50 is on record?
A: < 5 nM

Q: For `C=CC(=O)N1CC2(CC(n3nc(N4CCN(C(C)=O)CC4)c(-c4c(Cl)ccc5[nH]ncc45)c3C)C2)C1` (single isomer, unassigned) [Example 36b, 1-(6-(3-(4-acetylpiperazin-1-yl)-4-(5-chloro-1H-indazol-4-yl)-5-methyl-1H-pyrazol-1-yl)-2-azaspiro[3.3]heptan-2-yl)prop-2-en-1-one], which IC50 is on record?
A: 2400 nM

Q: With `C=CC(=O)N1CC2(CC(n3nc(N4CCC(N5CC6COCC(C5)O6)CC4(C)C)c(-c4c(Cl)c(C)cc5[nH]ncc45)c3C)C2)C1` (single isomer, unassigned) [Example 119b, 1-(6-(3-(4-(3,9-dioxa-7-azabicyclo[3.3.1]nonan-7-yl)-2,2-dimethylpiperidin-1-yl)-4-(5-chloro-6-methyl-1H-indazol-4-yl)-5-methyl-1H-pyrazol-1-yl)-2-azaspiro[3.3]heptan-2-yl)prop-2-en-1-one] as the compound, how does the IC50 read?
A: 36 nM

Q: `C=CC(=O)N1CC2(CC(n3nc(N4CC[C@@H](CN5CCOC6(COC6)C5)CC4(C)C)c(-c4c(Cl)c(C)cc5[nH]ncc45)c3C)C2)C1` (single isomer, unassigned) [Example 299a] was tested. Which IC50 did it give?
A: 793 nM

Q: `C=CC(=O)N1CC2(CC(n3nc(N4CCC5(CN(C)CCO5)CC4(C)C)c(-c4c(Cl)c(C)cc5[nH]ncc45)c3C)C2)C1` (single isomer, unassigned) [Example 208b, 1-(6-(4-(5-chloro-6-methyl-1H-indazol-4-yl)-5-methyl-3-(4,8,8-trimethyl-1-oxa-4,9-diazaspiro[5.5]undecan-9-yl)-1H-pyrazol-1-yl)-2-azaspiro[3.3]heptan-2-yl)prop-2-en-1-one] was tested. Which IC50 did it give?
A: 3800 nM

Q: `C=CC(=O)N1CC2(CC(n3nc(N4CCN(C5CC6(COC6)C5)CC45CCC5)c(-c4c(Cl)c(C)cc5[nH]ncc45)c3C)C2)C1` (single isomer, unassigned) [Example 135b, 1-(6-(3-(8-(2-oxaspiro[3.3]heptan-6-yl)-5,8-diazaspiro[3.5]nonan-5-yl)-4-(5-chloro-6-methyl-1H-indazol-4-yl)-5-methyl-1H-pyrazol-1-yl)-2-azaspiro[3.3]heptan-2-yl)prop-2-en-1-one] was tested. Which IC50 did it give?
A: 14 nM

Q: How did the IC50 turn out when `C=CC(=O)N1CC2(CC(n3nc(N4CC[C@@H](CN5CC6OCCN(C)C6C5)CC4(C)C)c(-c4c(Cl)c(Cl)cc5[nH]ncc45)c3C)C2)C1` (single isomer, unassigned) [Example 259b, 1-(6-(4-(5,6-dichloro-1H-indazol-4-yl)-3-((R)-2,2-dimethyl-4-(((4aR*,7aS*)-4-methylhexahydropyrrolo[3,4-b][1,4]oxazin-6(2H)-yl)methyl)piperidin-1-yl)-5-methyl-1H-pyrazol-1-yl)-2-azaspiro[3.3]heptan-2-yl)prop-2-en-1-one] was run?
A: 10 nM

Q: How did the IC50 turn out when `C=CC(=O)N1CC2(CC(n3nc(N4CCN(C[C@@H]5COCCO5)C[C@]4(C)COC)c(-c4c(Cl)c(C)cc5[nH]nc(N)c45)c3C)C2)C1` (single isomer, unassigned) [Example 118b] was run?
A: 818 nM

Q: How did the IC50 turn out when `C=CC(=O)N1CC2(CC(n3nc(N4CCN(C)CC45CCC5)c(-c4c(Cl)c(C)cc5[nH]ncc45)c3C)C2)C1` (single isomer, unassigned) [Example 55b, 1-(6-(4-(5-chloro-6-methyl-1H-indazol-4-yl)-5-methyl-3-(8-methyl-5,8-diazaspiro[3.5]nonan-5-yl)-1H-pyrazol-1-yl)-2-azaspiro[3.3]heptan-2-yl)prop-2-en-1-one] was run?
A: 34 nM

Q: Which IC50 does the source give for `C=CC(=O)N1CC2(CC(n3nc(N4CC[C@@H](CN5CCN(S(C)(=O)=O)CC5)CC4(C)C)c(-c4c(Cl)c(Cl)cc5[nH]ncc45)c3C)C2)C1` (single isomer, unassigned) [Example 298b] here?
A: 27 nM

Q: Which IC50 does the source give for `C=CC(=O)N1CC2(CC(n3nc(N4CC[C@@H](N(C)C(C)=O)CC4(C)C)c(-c4c(Cl)c(C)cc5[nH]ncc45)c3C)C2)C1` (single isomer, unassigned) [Example 69b] here?
A: 15 nM

Q: With `C=CC(=O)N1CC2(CC(n3nc(N4CCN(C[C@H]5CCCO5)CC45CCC5)c(-c4c(Cl)c(C)cc5[nH]ncc45)c3C)C2)C1` (single isomer, unassigned) [Example 153b] as the compound, how does the IC50 read?
A: 19 nM

Q: How did the IC50 turn out when `C=CC(=O)N1CC2(CC(n3nc(N4CCN(C5CCCOC5)C[C@]4(C)CC)c(-c4c(Cl)c(C)cc5[nH]ncc45)c3C)C2)C1` (single isomer, unassigned) [Example 157b] was run?
A: > 5000 nM

Q: For `C=CC(=O)N1CC2(CC(n3nc(N4CCN(C(C)C)CC45CCC5)c(-c4c(Cl)c(C)cc5[nH]ncc45)c3C)C2)C1` (single isomer, unassigned) [Example 131b, 1-(6-(4-(5-chloro-6-methyl-1H-indazol-4-yl)-3-(8-isopropyl-5,8-diazaspiro[3.5]nonan-5-yl)-5-methyl-1H-pyrazol-1-yl)-2-azaspiro[3.3]heptan-2-yl)prop-2-en-1-one], which IC50 is on record?
A: 76 nM

Q: How did the IC50 turn out when `C=CC(=O)N1CC2(CC(n3nc(N4CC[C@@H](CN5CCN(S(C)(=O)=O)CC5)CC4(C)C)c(-c4c(Cl)c(Cl)cc5[nH]ncc45)c3C)C2)C1` (single isomer, unassigned) [Example 298a] was run?
A: 1000 nM

Q: `C=CC(=O)N1CC2(CC(n3nc(N4CC[C@@H](CN5CC6(CCN(S(C)(=O)=O)C6)C5)CC4(C)C)c(-c4c(Cl)c(Cl)cc5[nH]ncc45)c3C)C2)C1` (single isomer, unassigned) [Example 297b] was tested. Which IC50 did it give?
A: 9 nM

Q: Which IC50 does the source give for `C=CC(=O)N1CC2(CC(n3nc(N4CCN(CC(C)(C)O)C[C@@]4(C)CC)c(-c4c(Cl)c(C)cc5[nH]ncc45)c3C)C2)C1` (single isomer, unassigned) [Example 164a] here?
A: > 5000 nM

Q: For `C=CC(=O)N1CC2(CC(n3nc(N4CCN(C[C@@H]5COCCO5)C[C@]4(C)CC)c(-c4c(O)cccc4Cl)c3C)C2)C1` [Example 111, 1-(6-(3-((S)-4-(((R)-1,4-dioxan-2-yl)methyl)-2-ethyl-2-methylpiperazin-1-yl)-4-(2-chloro-6-hydroxyphenyl)-5-methyl-1H-pyrazol-1-yl)-2-azaspiro[3.3]heptan-2-yl)prop-2-en-1-one], which IC50 is on record?
A: 1700 nM

Q: How did the IC50 turn out when `C=CC(=O)N1CC2(CC(n3nc(N4CC[C@@H](CN5CCC56COC6)CC4(C)C)c(-c4c(Cl)c(Cl)cc5[nH]ncc45)c3C)C2)C1` (single isomer, unassigned) [Example 307a] was run?
A: > 5000 nM

Q: How did the IC50 turn out when `C=CC(=O)N1CC2(CC(n3nc(N4CCN(C(C)=O)C5(CCC5)C4)c(-c4c(Cl)c(C)cc5[nH]ncc45)c3C)C2)C1` (single isomer, unassigned) [Example 20b, 1-(6-(3-(5-acetyl-5,8-diazaspiro[3.5]nonan-8-yl)-4-(5-chloro-6-methyl-1H-indazol-4-yl)-5-methyl-1H-pyrazol-1-yl)-2-azaspiro[3.3]heptan-2-yl)prop-2-en-1-one] was run?
A: 38300 nM

Q: How did the IC50 turn out when `C=CC(=O)N1CC2(CC(n3nc(N4CC[C@@H](CN5CCOC6CS(=O)(=O)CC65)CC4(C)C)c(-c4c(Cl)c(Cl)cc5[nH]ncc45)c3C)C2)C1` (single isomer, unassigned) [Example 266b, 1-(6-(4-(5,6-dichloro-1H-indazol-4-yl)-3-((R)-4-(((4aR*,7aS*)-6,6-dioxidohexahydro-4H-thieno[3,4-b][1,4]oxazin-4-yl)methyl)-2,2-dimethylpiperidin-1-yl)-5-methyl-1H-pyrazol-1-yl)-2-azaspiro[3.3]heptan-2-yl)prop-2-en-1-one] was run?
A: 7 nM
